In ChEMBL document CHEMBL5325415, “Falcipains: Biochemistry, target validation and structure-activity relationship studies of inhibitors as antimalarials” (Eur J Med Chem, 2023):
Converted amounts (≈) assume the structure as drawn. *1 amine or outer side, *2 acyl side, *3 side chain or, on linkers, in order; H or OH if unused. Where a SMILES comes first, the peptide text is derived from it. [ ]: non-standard residue; d: D form. The star is where a group is joined. hPhe = N[C@@H](CCc1ccccc1)C(=O)O; Ac6c = NC1(C(=O)O)CCCCC1; Morpholide = C1CN(*)CCO1; Cbz = O=C(OCc1ccccc1)*; CO = O=C([*:1])[*:2]; CH2F = FC*

How the values were obtained:
Falcipain 2 [1] = biological target: T1, Falcipain 2 (Plasmodium falciparum, UniProt Q9N6S8); test: Inhibition of Plasmodium falciparum Itg2 trophozite extracts FP-2 using Z-phe-Arg-AMC as substrate pretreated with enzyme for 30 mins followed by substrate addition and measured for 30 mins by spectrofluorometry
T1 sequence (Q9N6S8 whole entry): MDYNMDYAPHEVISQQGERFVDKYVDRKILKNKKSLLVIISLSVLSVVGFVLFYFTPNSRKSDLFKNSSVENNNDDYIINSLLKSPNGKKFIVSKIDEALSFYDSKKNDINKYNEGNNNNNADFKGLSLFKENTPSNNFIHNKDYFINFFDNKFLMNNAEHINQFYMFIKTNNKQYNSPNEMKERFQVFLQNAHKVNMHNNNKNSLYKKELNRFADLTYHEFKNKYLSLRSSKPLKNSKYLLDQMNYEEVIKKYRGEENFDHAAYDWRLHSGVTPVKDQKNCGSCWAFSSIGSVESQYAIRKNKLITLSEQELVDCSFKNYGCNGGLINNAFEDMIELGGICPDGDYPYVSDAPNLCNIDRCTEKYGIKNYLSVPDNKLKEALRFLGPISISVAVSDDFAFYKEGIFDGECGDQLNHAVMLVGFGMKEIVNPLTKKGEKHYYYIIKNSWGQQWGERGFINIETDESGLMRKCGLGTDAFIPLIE

Plasmodium falciparum [2] = test: Antimalarial activity against chloroquine-resistant Plasmodium falciparum RKL9 infected in RBC measured after 24 to 30 hrs by microscopic analysis; assay type: functional, organism-based; settings: RKL9, Erythrocyte
Falcipain 2 [3] = biological target: T1, Falcipain 2; test: Inhibition of Plasmodium falciparum FP-2 using Cbz-Phe-Arg-AMC as substrate pretreated with enzyme for 10 mins followed by substrate addition and measured after 10 mins by fluorescence based analysis
Plasmodium falciparum [4] = test: Antimalarial activity against chloroquine-sensitive Plasmodium falciparum 3D7 infected in RBC measured after 24 to 30 hrs by microscopic analysis; assay type: functional, organism-based; settings: 3D7, Erythrocyte
Plasmodium falciparum [5] = test: Antiplasmodial activity against Plasmodium falciparum ItG; assay type: functional, organism-based
Plasmodium falciparum [6] = test: Antiplasmodial activity against Plasmodium falciparum D6; assay type: functional, organism-based
Plasmodium falciparum [7] = test: Antiplasmodial activity against Plasmodium falciparum W2; assay type: functional, organism-based
Plasmodium falciparum [8] = test: Antiplasmodial activity against Plasmodium falciparum Dd2; assay type: functional, organism-based
Plasmodium falciparum [9] = test: Antiplasmodial activity against Plasmodium falciparum HB3; assay type: functional, organism-based
Falcipain 2 [10] = biological target: T1, Falcipain 2; test: Inhibition of Plasmodium falciparum trophozite extracts FP-2
Plasmodium falciparum [11] = test: Antimalarial activity against Chloroquine-resistant Plasmodium falciparum RKL9 infected in human erythrocytes assessed as inhibition of parasite growth incubated for 72 hrs by Giemsa staining based analysis; assay type: functional, organism-based; settings: RKL9, Erythrocyte
Plasmodium falciparum [12] = test: Antimalarial activity against Chloroquine-sensitive Plasmodium falciparum 3D7 infected in human erythrocytes assessed as inhibition of parasite growth incubated for 72 hrs by Giemsa staining based analysis; assay type: functional, organism-based; settings: 3D7, Erythrocyte
Plasmodium vinckei = test: Antimalarial activity against Plasmodium vinckei infected in Swiss webster mouse assessed as disease cure rate at 50 to 100 mg/kg, po administered twice a day for 4 days; assay type: functional; settings: dose 50-100 mg/kg, time 4 day
[13] = Inhibition of Plasmodium vinckei extracts VP-2 using Z-phe-Arg-AMC as substrate pretreated with enzyme for 30 mins followed by substrate addition and measured for 30 mins by spectrofluorometry
Falcipain 2 [14] = biological target: T1, Falcipain 2; test: Inhibition of Plasmodium falciparum FP-2 using Z-Phe-Arg-AMC as substrate pretreated with enzyme for 10 mins followed by susbtrate addition and measured after 10 mins by fluorescence based analysis
[15] = system: Cathepsin L (relative to Plasmodium falciparum FP-2); test: Selectivity index, ratio of Ki for inhibition of human Cathepsin L to Ki for inhibition of Plasmodium falciparum FP-2; assay type: toxicity; settings: read-out: Ratio Ki
Falcipain 2 [16] = biological target: T1, Falcipain 2; test: Inhibition of Plasmodium falciparum FP-2 using Cbz-Leu-Arg-AMC as substrate and measured for 5 to 10 mins by fluorescence spectrophotometric analysis
[17] = system: Cathepsin B (relative to Plasmodium falciparum FP-2); test: Selectivity index, ratio of Ki for inhibition of human Cathepsin B to Ki for inhibition of Plasmodium falciparum FP-2; assay type: toxicity; settings: read-out: Ratio Ki
Heme = test: Inhibition of heme (unknown origin) assessed as inhibition of hemozoin formation incubated for 24 hrs by FBIT test
Plasmodium falciparum [18] = test: Antiplasmodial activity against Plasmodium falciparum W2 infected in human erythrocytes assessed as inhibition of parasite growth measured after 48 hrs by flow cytometry; assay type: functional, organism-based; settings: W2, Erythrocyte
Falcipain 2 [19] = biological target: T1, Falcipain 2; test: Inhibition of Plasmodium falciparum FP-2 using Z-Leu-Arg-AMC as substrate pretreated with enzyme for 30 mins followed by substrate addition and measured for 15 mins by spectrofluorometry

Structure (SMILES): Oc1ccc(-c2nccc3ccc(Cc4ccccc4)cc23)cc1
- IC50 (Falcipain 2 [1]): 8 µM

Structure (SMILES): Cc1ccc(-c2nn(-c3ccccc3)cc2/C=C/c2nnc(-c3ccc(Cl)cc3Cl)o2)cc1
- IC50 (Plasmodium falciparum [2]): 0.902 mg/L (≈ 1.91 µM)
- IC50 (Falcipain 2 [3]): 110 µM
- IC50 (Plasmodium falciparum [4]): 0.486 mg/L (≈ 1.03 µM)

Structure (SMILES): O=C(CF)[C@H](CCc1ccccc1)NC(=O)[C@H](Cc1ccccc1)NC(=O)N1CCOCC1 ({Morpholide-CO}-Phe-[hPhe]-CH2F)
- IC50 (Plasmodium falciparum [5]): 0.00051 µM
- IC50 (Plasmodium falciparum [6]): 0.0009 µM
- IC50 (Plasmodium falciparum [7]): 0.00081 µM
- IC50 (Plasmodium falciparum [8]): 0.00078 µM
- IC50 (Plasmodium falciparum [9]): 0.00066 µM
- IC50 (Falcipain 2 [10]): 0.003 µM

Structure (SMILES): COc1ccc(/C=C(\C#N)c2nc3ccccc3[nH]2)cc1O
- IC50 (Plasmodium falciparum [11]): 5.46 µM
- IC50 (Plasmodium falciparum [12]): 1.61 µM

Structure (SMILES): CC(C)C[C@H](NC(=O)N1CCN(C)CC1)C(=O)N[C@H](/C=C/S(=O)(=O)c1ccc2ccccc2c1)CCc1ccccc1
- IC50 (Plasmodium falciparum [5]): 0.00018 µM
- IC50 (Plasmodium falciparum [6]): 0.00022 µM
- Activity (Plasmodium vinckei): 40%
- IC50 [13]: 0.02 µM
- IC50 (Falcipain 2 [1]): 0.002 µM
- IC50 (Plasmodium falciparum [7]): 0.0002 µM
- IC50 (Plasmodium falciparum [8]): 0.00032 µM
- IC50 (Plasmodium falciparum [9]): 0.00019 µM

Structure (SMILES): COc1cc(/C=C(\C#N)c2nc3ccccc3[nH]2)cc(OC)c1
- IC50 (Plasmodium falciparum [11]): 14.3 µM
- IC50 (Plasmodium falciparum [12]): 1.6 µM
- IC50 (Falcipain 2 [14]): 3.61 µM

Structure (SMILES): Cc1ccc(-c2nn(-c3ccccc3)cc2/C=C/c2nnc(-c3ccc(Cl)cc3)o2)cc1
- IC50 (Plasmodium falciparum [2]): 1.57 mg/L (≈ 3.58 µM)
- IC50 (Falcipain 2 [3]): 20 µM
- IC50 (Plasmodium falciparum [4]): 0.486 mg/L (≈ 1.11 µM)

Structure (SMILES): N#C/C(=C\c1cccc(Cl)c1)c1nc2ccccc2[nH]1
- IC50 (Plasmodium falciparum [12]): 24.8 µM

Structure (SMILES): CC(C)C[C@H](NC(=O)N1CCN(C)CC1)C(=O)N[C@H](/C=C/S(=O)(=O)c1ccccc1)CCc1ccccc1
- IC50 (Plasmodium falciparum [5]): 0.0006 µM
- IC50 (Plasmodium falciparum [6]): 0.00058 µM
- IC50 [13]: 0.2 µM
- IC50 (Falcipain 2 [1]): 0.005 µM
- IC50 (Plasmodium falciparum [7]): 0.00045 µM
- IC50 (Plasmodium falciparum [8]): 0.0004 µM
- IC50 (Plasmodium falciparum [9]): 0.00044 µM

Structure (SMILES): O=CCNC(=O)C1(NC(=O)OCc2ccccc2)CCCCC1 (Cbz-[Ac6c]-Gly-aldehyde)
- selectivity ratio [15]: 12.6
- Ki (Falcipain 2 [16]): 0.065 µM
- selectivity ratio [17]: 20.8

Structure (SMILES): N#C/C(=C\c1ccc([N+](=O)[O-])cc1)c1nc2ccccc2[nH]1
- IC50 (Plasmodium falciparum [12]): 68.9 µM

Structure (SMILES): C(=C\c1cn(-c2ccccc2)nc1-c1ccccc1)/c1nnc(-c2ccco2)o1
- IC50 (Plasmodium falciparum [2]): 0.863 mg/L (≈ 2.27 µM)
- IC50 (Falcipain 2 [3]): 14 µM
- IC50 (Plasmodium falciparum [4]): 0.248 mg/L (≈ 0.652 µM)

Structure (SMILES): COc1cccc(/C=C(\C#N)c2nc3ccccc3[nH]2)c1
- IC50 (Plasmodium falciparum [11]): 3.41 µM
- IC50 (Plasmodium falciparum [12]): 0.69 µM
- IC50 (Falcipain 2 [14]): 2.21 µM
- IC50 (Heme): 0.26 µM

Structure (SMILES): N#C/C(=C\c1cccc([N+](=O)[O-])c1)c1nc2ccccc2[nH]1
- IC50 (Plasmodium falciparum [12]): 64.8 µM

Structure (SMILES): COc1cc(OC)c(/C=C2\SC(=O)N(CC(=O)N3CCN(c4ccccc4)CC3)C2=O)c(OC)c1
- EC50 (Plasmodium falciparum [18]): 0.45 µM
- IC50 (Falcipain 2 [19]): 25.5 µM

Structure (SMILES): Fc1ccc(-c2nn(-c3ccccc3)cc2/C=C/c2nnc(-c3c[nH]c4ccccc34)o2)cc1
- IC50 (Plasmodium falciparum [2]): 1.37 mg/L (≈ 3.07 µM)

Structure (SMILES): COc1ccc(-c2nccc3ccc(Cc4ccccc4)cc23)cc1
- IC50 (Falcipain 2 [1]): 10 µM
